Laboratory results from patent US11319289B2, “5-hydroxy pyridine-based compound for use as P2X1 and P2X3 receptor antagonist and pharmaceutical composition comprising same” (GWANGJU INSTITUTE OF SCIENCE AND TECHNOLOGY, priority 2017, dated 2022).

Experiments:
[1] = tested on: SNL rats (mechanical allodynia); assay: Antiallodynic effect (von Frey) in spinal nerve ligation (SNL) rats; type: in vivo, rat
Procedure: (§1) 3-1. Evaluation of In Vivo Efficacy
(§2) The antiallodynic effects (mechanical allodynia) were evaluated using rats according to a previously reported protocol. In order to evaluate the withdrawal threshold, rats (naive, SNL and CIPN) were placed on a plastic mesh floor of individual plastic cages. The rats were allowed to acclimate to the environment for 30 minutes and examined after intrathecal or intravenous administration to the caudal vein. The control group received the same volume of vehicle (intrathecal administration of saline or DMSO, intravenous administration of DMSO:PEG:PBS=1:6:3 v/v %) as the experimental groups. Evaluation of the mechanical withdrawal threshold was measured in responses to the application of calibrated von Frey filaments (Stoelting, Wood Dale, Ill., USA) to the hind paw of the rats through the holes on the mesh floor underneath the cage using the ‘up and down method’. A series of eight von Frey filaments (0.4, 0.7, 1.2, 2.0, 3.6, 5.5, 8.5, and 15 g) was applied perpendicular to the sole of the hind paw for 5 seconds while the head was bent. Active withdrawal or flinching of the paw was considered as a positive reaction. The absence of response in the rats, when a pressure was applied to 15 g von Frey filament, was used as a cut-off value. Only rats with definite allodynia (i.e., mechanical withdrawal threshold: less than 4 g after SNL or less than 5 g after CIPN) were tested. The rats after termination of the experiments were euthanized through an overdose of sevoflurane. The withdrawal threshold data for the von Frey filament test was calculated as % MPE (maximum possible effect) based on the following Calculation Equation: % MPE=[(Post-drug threshold−Post-injured baseline threshold)/(Cutoff threshold−post-injured baseline threshold)×100]. Dose-response data were analyzed using Scheffe's post hoc test and one-way analysis of variance (ANOVA).

[2] = tested on: CIPN rats (mechanical allodynia); assay: Antiallodynic effect (von Frey) in chemotherapy-induced peripheral neuropathy (CIPN) rats; type: in vivo; conditions: Rattus norvegicus, intravenous administration
Procedure: as §1, §2

CYP450 1A2 = biological target: T1, CYP450 1A2 (Homo sapiens, UniProt P05177); assay: CYP inhibition assay (Vivid fluorometric), 1A2; type: biochemical; conditions: 1 μM in Table 5
T1 construct: purchased Invitrogen
T1 sequence (P05177 1-516): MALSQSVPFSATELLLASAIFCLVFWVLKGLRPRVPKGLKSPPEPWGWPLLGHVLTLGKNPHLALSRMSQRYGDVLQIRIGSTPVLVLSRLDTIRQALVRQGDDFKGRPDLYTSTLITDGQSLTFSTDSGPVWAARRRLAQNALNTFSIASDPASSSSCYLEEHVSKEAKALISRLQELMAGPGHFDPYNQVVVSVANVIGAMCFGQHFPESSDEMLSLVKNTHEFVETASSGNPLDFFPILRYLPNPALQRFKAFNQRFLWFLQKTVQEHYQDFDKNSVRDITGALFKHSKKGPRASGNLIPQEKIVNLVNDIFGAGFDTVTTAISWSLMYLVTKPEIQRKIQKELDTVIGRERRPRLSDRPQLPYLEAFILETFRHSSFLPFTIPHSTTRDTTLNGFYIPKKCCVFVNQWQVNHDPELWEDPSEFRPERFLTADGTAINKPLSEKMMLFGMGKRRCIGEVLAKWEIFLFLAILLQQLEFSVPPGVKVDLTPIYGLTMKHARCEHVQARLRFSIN
Procedure: (§3) CYP450 (1A2, 2C9, 3A4) enzyme assay was performed by a fluorometric assay using a Vivid® CYP450 screening kit (Invitrogen, USA, CA) in a 96-well black plate according to manufacturer's instructions with some modifications. The assay was performed at room temperature, and the final assay volume was 100 μL. […]
(§4) A master pre-mixture (enzyme (0.5 nmol recombinant human CYP450 enzyme)/NADP regeneration solution (333 mM glucose-6-phosphate dissolved, 30 U/mL glucose-6-phosphate dehydrogenase in 100 mM KH2PO4 solution at pH 8.0)) was prepared as a CYP450 reaction buffer (200 mM KH2PO4, pH 8.0). The master pre-mixture was added to each well of the 96 well plate, followed by the vehicle DMSO (control) and test compounds, and the mixture was preincubated for 10 minutes in the plate for background reading. Subsequently, the enzyme reaction was immediately initiated through the addition of CYP450 substrate/NADP^+ mixture. After incubation for 40 minutes, the fluorescence of the product was measured with a CHAMELEON™ multi-technology plate reader (2C9, 3A4: excitation wavelength of 530 nm and emission wavelength of 590 nm, 1A2: excitation wavelength of 415 nm and emission wavelength of 460 nm). The effect of the test compounds on CYP450 (1A2, 2C9, 3A4) was expressed as the percentage of enzyme activity.

CYP1A2 = biological target: T2, CYP1A2 (Homo sapiens, UniProt P05177); assay: CYP inhibition assay (Vivid fluorometric), 1A2; type: biochemical; conditions: human, recombinant human CYP1A2, pH 8; 1 μM in Table 5; read-out: CYP450 inhibition, 1A2 isozyme
T2 construct: purchased Invitrogen
T2 sequence (P05177 1-516): T1 sequence (P05177 1-516)
Procedure: as §3, §4

| CYP450 inhibition, 1A2 isozyme (CYP450 1A2) | inhibition at 40 min, 1 µM (CYP1A2) [%] | SMILES | ED50 ([1]; Rattus norvegicus, antiallodynic effect, intravenous administration) [mg/kg] | ED50 [2] [mg/kg] | antiallodynic efficacy, MPE % ([1]; 1 μg, intrathecal administration) [%] | paw withdrawal threshold ([1]; intrathecal administration, von Frey) |
| --- | --- | --- | --- | --- | --- | --- |
|  |  | CCCc1nc(Cc2cccc(Oc3ccccc3)c2)c(C)c(C(=O)OC)c1O [Compound 28, Methyl 3-hydroxy-5-methyl-6-(3-phenoxybenzyl)-2-propylisonicotinate] | 2.62 | 2.93 |  |  |
| weak inhibitory effect | 36 ± 3 | CCCc1nc(Cc2cccc(Oc3ccccc3)c2)c(C)c(C(=O)O)c1O [Compound 29, 3-Hydroxy-5-methyl-6-(3-phenoxybenzyl)-2-propylisonicotinic acid] |  |  | 58±19 | increase in paw withdrawal threshold |
